Tests used:
Format in all cases: in vivo
Conditions in all cases: duloxetine 30 mg/kg daily
[1] = tested on: Peripheral Sensory Neuropathy Induced by Oxaliplatin in Mice; assay: cold plate test, oxaliplatin-induced peripheral sensory neuropathy
Protocol: Male Balb/c mice of 6 to 7 weeks old were used. The mice were divided into three groups: a control group, an oxaliplatin administration group, and an oxaliplatin and Lentinus edodes mycelium extract administration group (oxaliplatin+Lentinus edodes mycelium extract administration group). Oxaliplatin was administered to each mouse once a day at a dose of 6 mg/kg. Further, the Lentinus edodes mycelium extract was administered to each mouse once a day at a dose of 2 g/kg.
Further, the number of times of administration was set to once a week (on Day 0, Day 7, and Day 14) for oxaliplatin and daily (from Day 0 to Day 15) for the Lentinus edodes mycelium extract in both the von Frey test and the cold plate test below.
The effect of the Lentinus edodes mycelium extract on the paresthesia to cold stimulation was tested by performing the cold plate test. The mice in the three groups in the above (1) were put on a cold plate set to 10° C. and a response time for avoidance (a latency) was measured. The shorter latency means that the mouse avoids the cold stimulation of the cold plate more.
Oxaliplatin was administered to each mouse once a day at a dose of 6 mg/kg. Further, the Lentinus edodes mycelium extract was administered to each mouse once a day at a dose of 2 g/kg three days or six days after the administration of oxaliplatin. These groups are referred to as “Lentinus edodes mycelium extract 3-day delayed administration group” and “Lentinus edodes mycelium extract 6-day delayed administration group”, respectively.
Further, groups in which duloxetine was administered after the administration of oxaliplatin were prepared for comparison.

[2] = tested on: Peripheral Sensory Neuropathy Induced by Vincristine in Mice; assay: von Frey test, vincristine-induced peripheral sensory neuropathy
Text: (§1) The mice in the three groups in the above (1) were put in a cage and a filament having a strength of 0.16 g was pressed on the plantar surface of the leg to measure the number of times (a score) of avoidance response.
(§2) In the present test, the mice were divided into three groups by a difference in test objects. As in Example 1, male Balb/c mice of 6 to 7 weeks old were used. The mice were divided into a total of three groups, a control group, a vincristine administration group, and a vincristine and Lentinus edodes mycelium extract administration group (vincristine+Lentinus edodes mycelium extract administration group).
Vincristine was administered to each mouse once a day at a dose of 0.2 mg/kg. Further, the Lentinus edodes mycelium extract was administered to each mouse once a day at a dose of 2 g/kg.
Further, the number of times of administration was set to once a week (on Day 0, Day 7, and Day 14) for vincristine and daily (from Day 0 to Day 15) for the Lentinus edodes mycelium extract in both the von Frey test and the cold plate test below.
Evaluation was performed in the same manner as in the test with oxaliplatin in Example 1. Referring to FIG. 5, the horizontal axis indicates an elapsed time after administration (days) and the vertical axis indicates the avoidance response (scores). Open circles with a solid line represent the control group. Filled circles with a solid line represent the group in which only vincristine was administered. Open squares with a dash line represent the group in which vincristine and the Lentinus edodes mycelium extract were administered at the same time (vincristine+Lentinus edodes mycelium extract administration group). When the difference with the control group was determined to be significant using a significance level of 5%, the data were marked by “*”.
(§3) In the present test, the mice were divided into six groups by a difference in test objects. As in Example 1, male Balb/c mice of 6 to 7 weeks old were used. […]

[3] = tested on: Peripheral Sensory Neuropathy Induced by Bortezomib in Mice; assay: von Frey test, bortezomib-induced peripheral sensory neuropathy
Text: as §1
as §2, with “bortezomib” for “vincristine”, “(bortezomib+Lentinus” for “(vincristine+Lentinus”
Bortezomib was administered to each mouse once a day at a dose of 1 mg/kg. Further, the Lentinus edodes mycelium extract was administered to each mouse once a day at a dose of 2 g/kg.
Further, the number of times of administration was set to once a week (on Day 0, Day 7, and Day 14) for bortezomib and daily (from Day 0 to Day 15) for the Lentinus edodes mycelium extract in both the von Frey test and the cold plate test below.
Evaluation was performed in the same manner as in the test with oxaliplatin in Example 1. Referring to FIG. 7, the horizontal axis indicates an elapsed time after administration (days) and the vertical axis indicates the avoidance response (scores). Open circles with a solid line represent the control group. Filled circles with a solid line represent the group in which only bortezomib was administered. Open squares with a dash line represent the group in which bortezomib and the Lentinus edodes mycelium extract were administered at the same time (bortezomib+Lentinus edodes mycelium extract administration group). When the difference with the control group was determined to be significant using a significance level of 5%, the data were marked by “*”.
as §3

## CNCC[C@H](Oc1cccc2ccccc12)c1cccs1 [duloxetine]
[1]; 3-day delayed after oxaliplatin
  latency compared with oxaliplatin administration group, cold plate test: almost the same as that in the oxaliplatin administration group
[1]; 6-day delayed after oxaliplatin
  latency, cold plate test: same tendency as that in the duloxetine 3-day delayed administration group
[2]; 3-day delayed after vincristine
  avoidance score compared with vincristine administration group, von Frey test: almost the same score as that in the vincristine administration group
[2]; 6-day delayed after vincristine
  avoidance score, von Frey test: same tendency as that in the duloxetine 3-day delayed administration group
[3]; 3-day delayed after bortezomib
  avoidance score compared with bortezomib administration group, von Frey test: almost the same score as that in the bortezomib administration group
[3]; 6-day delayed after bortezomib
  avoidance score, von Frey test: same tendency as that in the duloxetine 3-day delayed administration group

Reference: patent publication US11793845B2, “Composition for ameliorating peripheral sensory neuropathy” (KINKI UNIVERSITY, priority 2016, dated 2023)
